Here are results for 14 molecules from patent US20260083865A1, “PROSTATE SPECIFIC MEMBRANE ANTIGEN (PSMA) LIGANDS AND USE THEREOF” (priority 2022, published 2026).

Read-outs that look alike come from different tables or passages of the source. Numbered stars: 1 amine (or outer) side, 2 acyl side, 3 side chain; on linkers, the order of the positions; unused ones are H or OH. Bridge positions count the residues as written; N and C are the ends. Square brackets hold non-standard residues; d marks the D form. Peptide text beside a SMILES is read from it. * marks the point of attachment. TtdsdLys(DOTA)NH2 = NC(=O)[C@@H](CCCCNC(=O)CN1CCN(CC(=O)O)CCN(CC(=O)O)CCN(CC(=O)O)CC1)NC(=O)CCC(=O)NCCCOCCOCCOCCCN*; DOTA = O=C(O)CN1CCN(CC(=O)O)CCN(CC(=O)*)CCN(CC(=O)O)CC1; Phe(4-Cl) = N[C@@H](Cc1ccc(Cl)cc1)C(=O)O; Propanoyl(3-SO2NH2) = NS(=O)(=O)CCC(=O)*; Pro(4,4-F2) = O=C(O)[C@@H]1CC(F)(F)CN1; Ethylenediamine = C(CN[*:2])N[*:1]; d(αMeD) = C[C@@](N)(CC(=O)O)C(=O)O; hArg = N=C(N)NCCCC[C@H](N)C(=O)O; X1 = O=C(CC1CCN([*:1])CC1)[*:2]; Tle = CC(C)(C)[C@H](N)C(=O)O; 4Amb = NCc1ccc(C(=O)O)cc1; Aib = CC(C)(N)C(=O)O; βAla = NCCC(=O)O; Sar = CNCC(=O)O

Assay [1] has as its target T1, PSMA-expressing C4-2 cells (Homo sapiens, UniProt Q04609).
T1 construct: PSMA-expressing C4-2 cells (ATCC, Cat. No. CRL-3314) were cultured in RPMI-1640; host or cells: C4-2 cells
Kind of assay: FACS binding assay (competition with 50 nM PSM-0183). An outline of the steps:
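Competition format: fluorescent tracer PSM-0183 (50 nM) displaced from PSMA on C4-2 cells by a test compound titration over 1 h at 4 °C. Bound tracer was quantified as flow-cytometric AF488 median fluorescence after washing. Four-parameter logistic fits of MFI data gave IC50 and pIC50.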
On the technique in general: In flow cytometry, cells or beads pass a laser one at a time.

Assay [2] addresses T2, Fc-fusion protein of human PSMA (hPSMA-Fc) (Homo sapiens, UniProt Q04609).
T2 construct: purchased Acro Biosystems PSA-H5264
Kind of assay: Surface plasmon resonance assay (Biacore T200, single cycle kinetic). It counts as binding. An outline of the steps: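 KD, expressed as pKD, came from 1:1 Langmuir fits of reference- and buffer-blank-subtracted SPR data. The runs were single-cycle kinetics at 25° C in HBST/0.1% DMSO over human PSMA-Fc, captured to ~1000 RU on a peptide-coated CM5 surface and regenerated with 10 mM glycine pH 1.5.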
(Surface plasmon resonance follows binding to a sensor surface in real time, without labels.)

[3] abbreviates: FACS binding, C4-2 cells, competition with 50 nM PSM-0183, category, read-out: pIC50 [C4-2] CAT (converted).
Setting [4] is: SPR, hPSMA-Fc, single cycle kinetic, 25° C., category, read-out: pKD CAT (converted).

T1 sequence (Q04609 whole entry): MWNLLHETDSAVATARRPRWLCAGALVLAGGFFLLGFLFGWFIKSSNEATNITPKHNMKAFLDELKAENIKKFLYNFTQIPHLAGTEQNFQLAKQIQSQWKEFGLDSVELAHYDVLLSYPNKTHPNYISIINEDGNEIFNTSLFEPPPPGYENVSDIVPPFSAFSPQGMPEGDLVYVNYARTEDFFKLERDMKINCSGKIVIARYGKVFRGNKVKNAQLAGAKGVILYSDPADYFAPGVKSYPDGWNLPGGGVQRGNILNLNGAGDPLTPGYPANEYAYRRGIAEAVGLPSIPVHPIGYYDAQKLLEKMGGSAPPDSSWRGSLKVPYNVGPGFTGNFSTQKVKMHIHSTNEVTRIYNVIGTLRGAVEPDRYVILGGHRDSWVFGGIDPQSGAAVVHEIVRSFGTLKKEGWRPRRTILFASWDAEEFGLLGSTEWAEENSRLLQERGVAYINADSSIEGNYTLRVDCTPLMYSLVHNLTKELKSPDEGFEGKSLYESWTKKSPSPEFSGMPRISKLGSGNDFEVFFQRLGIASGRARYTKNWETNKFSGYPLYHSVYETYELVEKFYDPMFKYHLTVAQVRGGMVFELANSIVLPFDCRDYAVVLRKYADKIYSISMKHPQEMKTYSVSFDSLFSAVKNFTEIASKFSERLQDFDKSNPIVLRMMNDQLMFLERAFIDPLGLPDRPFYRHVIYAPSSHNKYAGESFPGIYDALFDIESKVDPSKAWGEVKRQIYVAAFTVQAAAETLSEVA
T2 sequence (Q04609 44-750 limits assumed): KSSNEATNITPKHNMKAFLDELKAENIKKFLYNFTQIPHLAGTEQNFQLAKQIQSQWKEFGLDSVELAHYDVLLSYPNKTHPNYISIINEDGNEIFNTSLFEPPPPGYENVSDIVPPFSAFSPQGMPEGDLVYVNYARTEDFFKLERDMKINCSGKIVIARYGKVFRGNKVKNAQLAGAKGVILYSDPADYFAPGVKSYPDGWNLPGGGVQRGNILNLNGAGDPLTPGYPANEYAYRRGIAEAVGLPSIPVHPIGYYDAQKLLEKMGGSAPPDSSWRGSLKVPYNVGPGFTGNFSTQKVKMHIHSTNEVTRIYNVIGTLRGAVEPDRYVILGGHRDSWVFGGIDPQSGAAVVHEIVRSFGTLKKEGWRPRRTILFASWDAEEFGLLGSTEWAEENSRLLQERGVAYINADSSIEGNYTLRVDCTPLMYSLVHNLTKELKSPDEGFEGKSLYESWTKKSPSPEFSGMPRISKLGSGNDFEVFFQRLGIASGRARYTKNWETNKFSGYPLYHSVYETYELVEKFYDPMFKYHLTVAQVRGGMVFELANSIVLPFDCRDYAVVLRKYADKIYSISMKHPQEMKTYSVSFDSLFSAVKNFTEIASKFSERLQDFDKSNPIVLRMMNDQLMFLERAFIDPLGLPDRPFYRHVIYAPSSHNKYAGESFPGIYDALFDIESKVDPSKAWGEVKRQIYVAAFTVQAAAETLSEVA

With `C[C@@H](O)[C@H](NC(=O)[C@@H](NC(=O)[C@@H]1CSSC[C@H](NC(=O)[C@H](Cc2ccc(Cl)cc2)NC(=O)C(C)(C)NC(=O)CCS(N)(=O)=O)C(=O)N[C@@H](CCCCN)C(=O)N[C@@H](CCCNC(=N)N)C(=O)NC(C)(C)C(=O)N[C@@H](CC(N)=O)C(=O)N1)C(C)(C)C)C(=O)N1CCC(CC(=O)N[C@H](CCCCNC(=O)CN2CCN(CC(=O)O)CCN(CC(=O)O)CCN(CC(=O)O)CC2)C(N)=O)CC1` [PSM-0215, SaPr-Aib-Pcf-[Cys-Lys-Arg-Aib-Asn-Cys]-Tle-Thr-Cmp-lys(DOTA)-NH2] ({Propanoyl(3-SO2NH2)}-[Aib][Phe(4-Cl)]CKR[Aib]NC[Tle]T[X1][dK](DOTA)-NH2; disulfide 3-8), the IC50 in assay [1] (setting [3]) was less than 200 nM. The Kd in assay [2] (setting [4]) is 12.6 to 126 nM.
Take `C[C@@H](O)[C@H](NC(=O)CN1CCN(CC(=O)O)CCN(CC(=O)O)CCN(CC(=O)O)CC1)C(=O)NC(C)(C)C(=O)N[C@@H](Cc1ccc(Cl)cc1)C(=O)N[C@H]1CSSC[C@@H](C(=O)N[C@H](C(=O)NCCC(N)=O)C(C)(C)C)NC(=O)[C@H](CC(N)=O)NC(=O)C(C)(C)NC(=O)[C@H](CCCNC(=N)N)NC(=O)[C@H](CCCCN)NC1=O` [PSM-0216, DOTA-Thr-Aib-Pcf-[Cys-Lys-Arg-Aib-Asn-Cys]-Tle-Bal-NH2] ({DOTA}-T[Aib][Phe(4-Cl)]CKR[Aib]NC[Tle][βAla]-NH2; disulfide 4-9): the IC50 in assay [1] (setting [3]) is less than 200 nM. For the same molecule, in assay [2] (setting [4]), the Kd was less than 12.6 nM.
For `CC(=O)N[C@H](C(=O)NC(C)(C)C(=O)N[C@@H](Cc1ccccc1)C(=O)N[C@H]1CSSC[C@@H](C(=O)N[C@H](C(=O)N[C@H](C(=O)N[C@@H](CC(=O)O)C(N)=O)[C@@H](C)O)C(C)(C)C)NC(=O)[C@H](CC(N)=O)NC(=O)[C@@H]2CC(F)(F)CN2C(=O)[C@H](CCCNC(=N)N)NC(=O)[C@H](CCCCN)NC1=O)[C@@H](C)O` [PSM-0217, Ac-Thr-Aib-Phe-[Cys-Lys-Arg-Dfp-Asn-Cys]-Tle-Thr-Asp-NH2] (Ac-T[Aib]FCKR[Pro(4,4-F2)]NC[Tle]TD-NH2; disulfide 4-9), in assay [1], the IC50 was less than 200 nM. This molecule also showed a Kd in assay [2] of 12.6 to 126 nM.
For the molecule `CC(C)C[C@H](NC(=O)CC1CCN(C(=O)CN2CCN(CC(=O)O)CCN(CC(=O)O)CCN(CC(=O)O)CC2)CC1)C(=O)NC(C)(C)C(=O)N[C@@H](Cc1ccccc1)C(=O)N[C@H]1CSSC[C@@H](C(=O)N[C@H](C(=O)N[C@H](C(N)=O)[C@@H](C)O)C(C)(C)C)NC(=O)[C@H](CC(N)=O)NC(=O)C(C)(C)NC(=O)[C@H](CCCNC(=N)N)NC(=O)[C@H](CCCCN)NC1=O` [PSM-0220, DOTA-Cmp-Leu-Aib-Phe-[Cys-Lys-Arg-Aib-Asn-Cys]-Tle-Thr-NH2] ({DOTA}-[X1]L[Aib]FCKR[Aib]NC[Tle]T-NH2; disulfide 5-10), in assay [1] (setting [3]), the IC50 was less than 200 nM. Also, the Kd in assay [2] (setting [4]) is 12.6 to 126 nM.
For `CC(C)(NC(=O)c1ccc(CNC(=O)CN2CCN(CC(=O)O)CCN(CC(=O)O)CCN(CC(=O)O)CC2)cc1)C(=O)N[C@@H](Cc1ccccc1)C(=O)N[C@H]1CSSC[C@@H](C(=O)N[C@H](C(=O)NCCN)C(C)(C)C)NC(=O)[C@H](CC(N)=O)NC(=O)C(C)(C)NC(=O)[C@H](CCCNC(=N)N)NC(=O)[C@H](CCCCN)NC1=O` [PSM-0221, DOTA-Pamb-Aib-Phe-[Cys-Lys-Arg-Aib-Asn-Cys]-Tle-en] ({DOTA-4Amb}-[Aib]FCKR[Aib]NC[Tle]-Ethylenediamine; disulfide 3-8) the same measures were less than 200 nM and less than 12.6 nM.
For `C[C@@H](O)[C@H](NC(=O)CN1CCN(CC(=O)O)CCN(CC(=O)O)CCN(CC(=O)O)CC1)C(=O)NC(C)(C)C(=O)N[C@@H](Cc1ccc(Cl)cc1)C(=O)N[C@H]1CSSC[C@@H](C(=O)N[C@H](C(=O)NCCN)C(C)(C)C)NC(=O)[C@H](CC(N)=O)NC(=O)C(C)(C)NC(=O)[C@H](CCCNC(=N)N)NC(=O)[C@H](CCCCN)NC1=O` [PSM-0222, DOTA-Thr-Aib-Pcf-[Cys-Lys-Arg-Aib-Asn-Cys]-Tle-en] ({DOTA}-T[Aib][Phe(4-Cl)]CKR[Aib]NC[Tle]-Ethylenediamine; disulfide 4-9) the same measures were less than 200 nM and less than 12.6 nM.
For `CC(=O)NC(=N)NCCC[C@@H]1NC(=O)[C@H](CCCCN)NC(=O)[C@@H](NC(=O)[C@H](Cc2ccc(Cl)cc2)NC(=O)C(C)(C)NC(=O)CC2CCN(C(=O)CN3CCN(CC(=O)O)CCN(CC(=O)O)CCN(CC(=O)O)CC3)CC2)CSSC[C@@H](C(=O)N[C@H](C(=O)N[C@H](C(N)=O)[C@@H](C)O)C(C)(C)C)NC(=O)[C@H](CC(N)=O)NC(=O)C(C)(C)NC1=O` [PSM-0223, DOTA-Cmp-Aib-Pcf-[Cys-Lys-Arg(Ac)-Aib-Asn-Cys]-Tle-Thr-NH2] ({DOTA}-[X1][Aib][Phe(4-Cl)]CKR(Ac)[Aib]NC[Tle]T-NH2; disulfide 4-9) the same measures were 200 to 1260 nM and 12.6 to 126 nM.
As for `C[C@@H](O)[C@H](NC(=O)[C@@H](NC(=O)[C@@H]1CSSC[C@H](NC(=O)[C@H](Cc2ccccc2)NC(=O)C(C)(C)NC(=O)CCS(N)(=O)=O)C(=O)N[C@@H](CCCCN)C(=O)N[C@@H](CCCNC(=N)N)C(=O)NC(C)(C)C(=O)N[C@@H](CC(N)=O)C(=O)N1)C(C)(C)C)C(N)=O` [PSM-0224, SaPr-Aib-Phe-[Cys-Lys-Arg-Aib-Asn-Cys]-Tle-Thr-NH2] ({Propanoyl(3-SO2NH2)}-[Aib]FCKR[Aib]NC[Tle]T-NH2; disulfide 3-8), the IC50 in assay [1] (setting [3]) is less than 200 nM. Moreover, the Kd in assay [2] (setting [4]) was less than 12.6 nM.
For `C[C@@H](O)[C@H](NC(=O)[C@@H](NC(=O)[C@@H]1CSSC[C@H](NC(=O)[C@H](Cc2ccc(Cl)cc2)NC(=O)C(C)(C)NC(=O)[C@@H](NC(=O)CC2CCN(C(=O)CN3CCN(CC(=O)O)CCN(CC(=O)O)CCN(CC(=O)O)CC3)CC2)[C@@H](C)O)C(=O)N[C@@H](CCCCNC(=N)N)C(=O)N[C@@H](CCCNC(=N)N)C(=O)NC(C)(C)C(=O)N[C@@H](CC(N)=O)C(=O)N1)C(C)(C)C)C(N)=O` [PSM-0225, DOTA-Cmp-Thr-Aib-Pcf-[Cys-Har-Arg-Aib-Asn-Cys]-Tle-Thr-NH2] ({DOTA}-[X1]T[Aib][Phe(4-Cl)]C[hArg]R[Aib]NC[Tle]T-NH2; disulfide 5-10) the same measures were less than 200 nM and less than 12.6 nM.
For the molecule `C[C@@H](O)[C@H](NC(=O)[C@@H](NC(=O)[C@@H]1CSSC[C@H](NC(=O)[C@H](Cc2ccc(Cl)cc2)NC(=O)C(C)(C)NC(=O)[C@@H](NC(=O)CC2CCN(C(=O)CN3CCN(CC(=O)O)CCN(CC(=O)O)CCN(CC(=O)O)CC3)CC2)[C@@H](C)O)C(=O)N[C@@H](CCCCN)C(=O)N[C@@H](CCCNC(=N)N)C(=O)N[C@](C)(CC(=O)O)C(=O)N[C@@H](CC(N)=O)C(=O)N1)C(C)(C)C)C(N)=O` [PSM-0227, DOTA-Cmp-Thr-Aib-Pcf-[Cys-Lys-Arg-amd-Asn-Cys]-Tle-Thr-NH2] ({DOTA}-[X1]T[Aib][Phe(4-Cl)]CKR[d(αMeD)]NC[Tle]T-NH2; disulfide 5-10), in assay [1] (setting [3]), the IC50 is less than 200 nM. The Kd in assay [2] (setting [4]) is less than 12.6 nM.
For `CC(=O)NC(C)(C)C(=O)N[C@@H](Cc1ccccc1)C(=O)N[C@H]1CSSC[C@@H](C(=O)N[C@H](C(=O)N[C@H](C(N)=O)[C@@H](C)O)C(C)(C)C)NC(=O)[C@H](CC(N)=O)NC(=O)C(C)(C)NC(=O)[C@H](CCCNC(=N)N)NC(=O)[C@H](CCCCN)NC1=O` [PSM-0228, Ac-Aib-Phe-[Cys-Lys-Arg-Aib-Asn-Cys]-Tle-Thr-NH2] (Ac-[Aib]FCKR[Aib]NC[Tle]T-NH2; disulfide 3-8) the same measures were less than 200 nM and less than 12.6 nM.
For `CC(=O)N[C@H](C(=O)NC(C)(C)C(=O)N[C@@H](Cc1ccccc1)C(=O)N[C@H]1CSSC[C@@H](C(=O)N[C@H](C(N)=O)C(C)(C)C)NC(=O)[C@H](CC(N)=O)NC(=O)C(C)(C)NC(=O)[C@H](CCCNC(=N)N)NC(=O)[C@H](CCCCN)NC1=O)[C@@H](C)O` [PSM-0230, Ac-Thr-Aib-Phe-[Cys-Lys-Arg-Aib-Asn-Cys]-Tle-NH2] (Ac-T[Aib]FCKR[Aib]NC[Tle]-NH2; disulfide 4-9) the same measures were less than 200 nM and less than 12.6 nM.
For `CC(=O)N[C@H](C(=O)NC(C)(C)C(=O)N[C@@H](Cc1ccccc1)C(=O)N[C@H]1CSSC[C@@H](C(=O)N[C@H](C(=O)N[C@H](C(=O)NCCCOCCOCCOCCCNC(=O)CCC(=O)N[C@H](CCCCNC(=O)CN2CCN(CC(=O)O)CCN(CC(=O)O)CCN(CC(=O)O)CC2)C(N)=O)[C@@H](C)O)C(C)(C)C)NC(=O)[C@H](CC(N)=O)NC(=O)[C@H](C)NC(=O)[C@H](CCCNC(=N)N)NC(=O)[C@H](CCCCN)NC1=O)[C@@H](C)O` [PSM-0231, Ac-Thr-Aib-Phe-[Cys-Lys-Arg-Ala-Asn-Cys]-Tle-Thr-Ttds-lys(DOTA)-NH2] (Ac-T[Aib]FCKRANC[Tle]T-{TtdsdLys(DOTA)NH2}; disulfide 4-9) the same measures were less than 200 nM and less than 12.6 nM.
In the case of `CC(=O)N[C@H](C(=O)NC(C)(C)C(=O)N[C@@H](Cc1ccccc1)C(=O)N[C@H]1CSSC[C@@H](C(=O)N[C@H](C(=O)N[C@H](C(N)=O)[C@@H](C)O)C(C)(C)C)NC(=O)[C@H](CC(N)=O)NC(=O)CN(C)C(=O)[C@H](CCCNC(=N)N)NC(=O)[C@H](CCCCN)NC1=O)[C@@H](C)O` [PSM-0232, Ac-Thr-Aib-Phe-[Cys-Lys-Arg-Nmg-Asn-Cys]-Tle-Thr-NH2] (Ac-T[Aib]FCKR[Sar]NC[Tle]T-NH2; disulfide 4-9), in assay [1] (setting [3]), the IC50 is less than 200 nM. The Kd in assay [2] (setting [4]) is less than 12.6 nM.
